Values joined by “and” are separate entries in the source; they are usually repeats but may differ in a detail not shown here. Equal entries are not always repeated. “Also recorded” adds a separate entry of the source.
System: acute hyperactive bladder
Test: Continuous CMG, acute hyperactive bladder model with intravesical PS and KCl (Examples 7-8)
Assay type: in vivo, female Sprague-Dawley rats
Procedure: An animal model for acute hyperactive bladder in rats was developed using intravesical infusion of PS, an agent used to break down urothelial barrier function and physiological concentrations of KCl.
Continuous CMGs were performed in urethane-anesthetized female rats. The bladder was filled (0.04 ml/min) with normal saline followed by intravesical infusion for a 60 minute period with a test solution comprising either KCl (100 or 500 mM) or PS (10 or 30 mg/ml). Following this, 10 mg/ml PS treated animals were infused intravesically with 100, 300 or 500 mM KCl. Some animals were pretreated with capsaicin ([…], sc) four days before the experiments.
Animal Preparation. The study was performed on 40 female Sprague-Dawley rats weighing 250-300 gm. Animals were anesthetized with 1.2 gm/kg urethane injected subcutaneously. Body temperature was maintained in the physiological range using a heating lamp.
Cystometrogram (CMG). PE-50 tubing (Clay-Adams, Parsippany, N.J.) was inserted into the bladder through the urethra and connected via a three-way stopcock to a pressure transducer and to a syringe pump. This was used for recording intravesical pressure and for infusing solutions into the bladder. A control CMG was performed by slowly filling the bladder with saline (0.04 ml/min) to elicit repetitive voiding. The amplitude, PT, compliance and intercontraction interval (ICI) of reflex bladder contractions were recorded. Pressure threshold (PT) represents the pressure that induces the initial bladder contraction. PT often has been used as a parameter corresponding to afferent nerve activity for the induction of reflex bladder contractions. Measurements in each animal represented the average of 3 to 5 bladder contractions.
After performing control CMGs with saline infusion, three intravesical infusion experiments were performed in parallel: (1) infusion of KCl (100 or 500 mM in saline) for one hour (N=4 in each group); (2) infusion of PS (Sigma Chemical Co.; 30 mg/ml in saline) for one hour (N=6); and (3) infusion of PS (10 mg/ml) for one hour, followed by 100, 300 or 500 mM KCl for one hour (N=6, in each subgroup). In four animals, capsaicin dissolved in a vehicle containing 10% ethanol, 10% TWEEN®80 and 80% physiological saline, at a concentration of 20 mg/ml was given subcutaneously in divided doses on 2 consecutive days. The doses included 25 and 50 mg/kg at a 12-hour interval on the first day and 50 mg/kg on the second day, as previously described (C. L. Cheng et al., 1993, Am. J. Physiol. 265:R132-138). All injections were performed under halothane anesthesia. Four days after the last dosage of capsaicin, the animals were anesthetized and treated with intravesical administration of PS (10 mg/ml) for 1 hour followed by KCl (500 mM) infusion.
Suppression of Micturition Reflex. To evaluate the direct effects of potassium on detrusor muscle, micturition reflex was blocked in 4 animals by either intravenous hexamethonium injection (25 mg/kg) (N=2) or transection of bilateral pelvic nerves (N=2).
Statistical Analysis. Statistical analyses were performed using Student's t test for paired or unpaired data, as applicable, with p<0.05 considered significant. Quantitative data are expressed in Example 8 (below) as means plus or minus standard error.

[1] = 100 mM KCl alone, one hour, N=4
[2] = 100 mM KCl following 10 mg/ml PS, N=6
[3] = 300 mM KCl following 10 mg/ml PS, N=6
[4] = 300 mM KCl following PS 10 mg/ml
[5] = 500 mM KCl alone, one hour, N=4
[6] = 500 mM KCl following 10 mg/ml PS, N=6
[7] = 500 mM KCl following PS 10 mg/ml
[8] = KCl 500 mM 1 hr after one hour PS 10 mg/ml, capsaicin pretreated animals, N=4
[9] = KCl 500 mM 2 hr after one hour PS 10 mg/ml, capsaicin pretreated animals, N=4
[10] = KCl 500 mM following PS 10 mg/ml, micturition reflex suppressed animals
[11] = capsaicin pretreated animals, PS 10 mg/ml then KCl 500 mM, 2 hours of infusion

Compound: [Cl-].[K+] [KCl]
- Amplitude [1]: 28.2 ± 0.5 cm H2O
- Compliance [1]: 0.205 ± 0.032 ml/cm H2O
- ICI [1]: 13.8 ± 2.0 min
- PT [1]: 5.9 ± 0.5 cm H2O
- Amplitude [2]: 28.2 ± 3.7 cm H2O
- Compliance [2]: 0.157 ± 0.022 ml/cm H2O
- ICI [2]: 18.8 ± 2.1 min
- PT [2]: 3.0 ± 1.3 cm H2O
- Amplitude [3]: 31.3 ± 0.7 cm H2O
- Compliance [3]: 0.066 ± 0.012 ml/cm H2O
- ICI [3]: 5.2 ± 1.7 min
- PT [3]: 3.3 ± 0.9 cm H2O
- ICI decrease [4]: 76.9%
- compliance decrease [4]: 60%
- contraction amplitude increase [4]: 23.7%
- onset of irritation (delay) [4]: 20 to 30 min
- Amplitude [5]: 28.8 ± 1.2 cm H2O
- Compliance [5]: 0.237 ± 0.023 ml/cm H2O
- ICI [5]: 15.8 ± 2.4 min
- PT [5]: 8.2 ± 0.9 cm H2O
- Amplitude [6]: 29.5 ± 3.4 cm H2O
- Compliance [6]: 0.075 ± 0.009 ml/cm H2O
- ICI [6]: 3.2 ± 1.3 min
- PT [6]: 5.4 ± 1.0 cm H2O
- ICI decrease [7]: 82.9%
- compliance decrease [7]: 63.4%
- contraction amplitude increase [7]: 21.4%
- onset of irritation (delay) [7]: 10 to 15 min
- PT change (300 or 500 mM KCl following PS 10 mg/ml): not significantly altered
- Amplitude [8]: 20.3 ± 0.3 cm H2O
- Compliance [8]: 0.218 ± 0.013 ml/cm H2O
- ICI [8]: 21.3 ± 2.8 min
- PT [8]: 5.8 ± 0.5 cm H2O
- Amplitude [9]: 16.0 ± 1.7 cm H2O
- Compliance [9]: 0.100 ml/cm H2O and 0.100 ± 0.016 ml/cm H2O
- ICI [9]: 13.1 ± 2.8 min
- PT [9]: 7.6 ± 1.7 cm H2O
- Compliance [10]: 0.041±0.011 ml/cm H2O
- compliance decrease [10]: 55.9%
- detrusor muscle / bladder compliance [10]: stimulated the detrusor muscle and decreased bladder compliance
- irritative effects / CMG parameters (KCl 100 or 500 mM alone): not observed; also recorded: not significantly different from those during saline administration
- ICI decrease [11]: 36%
- compliance decrease [11]: 55%
- bladder hyperactivity (high concentrations of KCl (300/500 mM) following one hour of PS 10 mg/ml): induced bladder hyperactivity (decrease ICI)
- CMG parameters (low concentration KCl (100 mM), one hour, following PS 10 mg/ml): did not produce significant changes in the CMG parameters; also recorded: had no effect
